{
  "source": "patent US4285947A",
  "about": "“Aldehyde adducts of triamterene” (INTERx Research Corporation, priority 1980, dated 1981)",
  "origin": "cited, not measured here",
  "key": {"[1]": {"test": "not given", "remark": "listed apart in the source"}, "[2]": {"conditions": "following the recommended clinical dose"}},
  "data": [
    {"smiles": "Nc1nc(N)c2nc(-c3ccccc3)c(N)nc2n1", "note": "[triamterene, 2,4,7-triamino-6-phenylpteridine]", "values": [
      {"measurement": "aqueous solubility", "value": 45, "unit": "µg/mL"},
      {"measurement": "solubility in lipid-like solvents", "setting": "[1]", "value": "limited solubility"},
      {"measurement": "plasma and urine concentration", "setting": "[2]", "value": "extremely low"}
    ]}
  ]
}
